Data reported in PubChem BioAssay (NCI).
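Growth conditions: 96-well plates. Treatment: test compound, 48 hours, 5 concentrations. Analysis: linear interpolation between bracketing concentrations; unreached endpoints set to highest concentration. Definition used: TGI = concentration required for complete inhibition of growth.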

Experiments:
Experiment in all cases: NCI-60 cell line screen, 48 h
LOX IMVI melanoma = tested on: LOX IMVI melanoma
RPMI-8226 leukemia = tested on: RPMI-8226 leukemia
SK-OV-3 ovarian = tested on: SK-OV-3 ovarian
HCT-116 colon = tested on: HCT-116 colon
SF-295 CNS = tested on: SF-295 CNS
SNB-19 CNS = tested on: SNB-19 CNS
UACC-257 melanoma = tested on: UACC-257 melanoma
NCI-H23 lung = tested on: NCI-H23 lung
MALME-3M melanoma = tested on: MALME-3M melanoma
HL-60(TB) leukemia = tested on: HL-60(TB) leukemia
K-562 leukemia = tested on: K-562 leukemia
UACC-62 melanoma = tested on: UACC-62 melanoma

Row | Compound | TGI (LOX IMVI melanoma) | TGI (RPMI-8226 leukemia) | TGI (SK-OV-3 ovarian) | TGI (HCT-116 colon) | TGI (SF-295 CNS) | TGI (SNB-19 CNS) | TGI (UACC-257 melanoma) | TGI (NCI-H23 lung) | TGI (MALME-3M melanoma) | TGI (HL-60(TB) leukemia) | TGI (K-562 leukemia) | TGI (UACC-62 melanoma)
1 | COC(=O)c1cc(NC(=O)Cn2c3ccccc3c3ccccc32)cn1C | > 100 µM | 75 µM | 89.2 µM | > 100 µM | 86.3 µM | > 100 µM | > 100 µM | > 100 µM | > 100 µM | > 100 µM | > 100 µM | 73.9 µM
2 | O=c1oc2c(Cl)cc(Cl)cc2cc1-c1cn2c(n1)sc1ccccc12 | > 100 µM | 89.1 µM | > 100 µM | > 100 µM | > 100 µM | > 100 µM | > 100 µM | > 100 µM | > 100 µM | 66.9 µM | 53.3 µM | > 100 µM
3 | Cc1ccnc2[nH]c(-c3ccc(Cl)cc3)cc(=O)c12 | > 100 µM | > 58.5 µM | > 62.1 µM | > 100 µM | > 100 µM | > 100 µM | > 100 µM | > 100 µM | > 100 µM | 4.74 µM | 60 µM | > 100 µM
4 | CC(C)(C)c1ccc(OCCOc2ccc(C(C)(C)C)cc2NC=O)c(NC=O)c1 | 19.2 µM | 13.6 µM | > 100 µM | 33.5 µM | 25 µM | > 100 µM | 27.4 µM | 40.7 µM | 24.8 µM | > 100 µM | > 43.7 µM | 28.1 µM
5 | Cc1nc(-n2nc(-c3ccccc3)cc2-c2ccccc2)sc1C(/C=C\c1ccc([N+](=O)[O-])cc1)=N/NC(=S)NN | > 66.5 µM | > 100 µM | > 100 µM | 41 µM | > 100 µM | > 80 µM | > 67.7 µM | 60.6 µM | > 100 µM | > 87.2 µM | > 100 µM | > 57.7 µM
6 | CCC(/C(=N/NC(=O)C[N+](C)(C)C)c1ccccc1)C1OC(=O)c2ccccc21 (stereo not given) | > 100 µM | > 100 µM | > 100 µM | > 100 µM | > 100 µM | > 100 µM | > 100 µM | > 100 µM | > 100 µM | > 100 µM | > 100 µM | > 100 µM
7 | CN1CN(c2ccccc2)C2(CCN(C(=O)OC(C)(C)C)CC2)C1=O | > 100 µM | > 100 µM | > 100 µM | > 100 µM | > 100 µM | > 100 µM | > 100 µM | > 100 µM | > 100 µM | > 100 µM | > 100 µM | > 100 µM
8 | COc1c(C(=O)CC2c3c(cc4oc(C)cc(=O)c4c3OC)OC(=N)C2c2nc3ccccc3[nH]2)c(O)c(OC)c2occc12 (stereo not given) | > 100 µM | > 100 µM | > 100 µM | > 100 µM | > 100 µM | > 100 µM | > 100 µM | > 100 µM | > 100 µM | > 100 µM | > 100 µM | > 100 µM
9 | COc1cc(/C=[N+](\[O-])c2ccccc2Cl)ccc1OC(=S)S | > 100 µM | > 100 µM | > 100 µM | > 100 µM | > 100 µM | > 100 µM | > 100 µM | > 100 µM | > 100 µM | 47.6 µM | > 100 µM | 99.7 µM
10 | CCN1CCC(O)(/C=C/c2ccc(Cl)c(Cl)c2)C(C(=O)/C=C/c2ccc(Cl)c(Cl)c2)C1 (stereo not given) | 2.02 µM | > 100 µM | 4.61 µM | 1.73 µM | 1.74 µM | 3.71 µM | 2.71 µM | 2.06 µM | 2.5 µM | 0.905 µM | 8.51 µM | 2.4 µM
11 | CC(=O)Nc1ccc(S(=O)(=O)Nc2cnc3ccccc3n2)cc1 | > 100 µM | > 100 µM | > 100 µM |  | > 100 µM | > 100 µM | > 100 µM | > 100 µM | > 100 µM | > 100 µM | > 100 µM | > 100 µM
12 | O=C(Cn1cc(I)c(C(=O)NCC(O)CO)n1)NCC(O)CO (stereo not given) | > 100 µM | > 100 µM | > 100 µM | > 100 µM | > 100 µM | > 100 µM | > 100 µM | > 100 µM | > 100 µM | > 100 µM | > 100 µM | > 100 µM
13 | COc1ccc(/C=C2\CCC(C)(CN(C)C)C2=O)cc1Br (stereo not given) | 35.3 µM | 58.4 µM | 70.5 µM | 32.1 µM | 80.7 µM | 47.8 µM | 36.6 µM | > 95.1 µM | 61.9 µM | 85.2 µM | 64.9 µM | 20 µM
14 | O=S1(=O)OCCOS(=O)(=O)C1C1c2ccccc2-c2ccccc21 | 89 µM | > 100 µM | > 100 µM | > 100 µM | > 100 µM | > 100 µM | > 100 µM | > 100 µM | > 100 µM | 58.9 µM | > 100 µM | > 100 µM
15 | c1ccc(C2SCc3nc4ccccc4n32)cc1 (stereo not given) | > 100 µM | 67.3 µM | > 100 µM | > 100 µM | > 100 µM | > 100 µM | 77.6 µM | > 100 µM | > 100 µM | 46.5 µM | > 100 µM | > 100 µM
16 | CCOC(=O)C1=C(C)NC(c2ccccc2)=C(C(=O)OCc2ccccc2)C1C#Cc1ccccc1 (stereo not given) | > 100 µM | > 100 µM | > 100 µM | > 100 µM | > 100 µM | > 100 µM | > 100 µM | > 100 µM | > 100 µM | > 100 µM | > 100 µM | > 100 µM
17 | CC(C)C(N=C1CC2CCC1(C(=O)Nc1ccccc1O)C2(C)C)c1ccccc1 (stereo not given) | > 10 µM | > 10 µM | > 10 µM | > 10 µM | > 10 µM | > 10 µM | > 10 µM | > 10 µM | > 10 µM | > 10 µM | > 10 µM | > 10 µM
18 | Clc1cccc(C=NC23CC4CC(CC(C4)C2)C3)c1Cl | > 10 µM | > 10 µM | > 10 µM | > 10 µM | > 10 µM | > 10 µM | > 10 µM | > 10 µM | > 10 µM | > 10 µM | > 10 µM | > 10 µM
